# In patent US6025467A, “Parathyroid hormone derivatives and their use” (Takeda Chemical Industries, Ltd., priority 1995, dated 2000):
# Non-standard residues stand in square brackets, D forms with d. Residues, ends and D or L forms follow the SMILES beside them. No end group written: not given here. 2Nal = N[C@@H](Cc1ccc2ccccc2c1)C(=O)O; Aib = CC(C)(N)C(=O)O
# Experiments:
# [1] = test system: Sprangue Dawley rats; experiment: Increase in femur bone weight in rats after subcutaneous dosing; assay type: in vivo, rat; conditions: dried right femur weight compared with vehicle group
# Description: To four-week-old male Sprangue Dawley rats, the compounds synthesized in Example 1 […], and increases in the bone weight in their femurs were compared with that of a group to which a vehicle (0.15M NaCl, 0.001N hydrochloric acid and 2% heat-inactivated rat serum) was given. After administration, their right femurs were taken out, and the tissues around them were removed. Then, the femurs were dried at 100° C. for 3 hours and weighed.
# [2] = target: PTH receptor (mouse, UniProt P41593); experiment: cell-based or functional assay
# [3] = 4.9 nmol/kg a day subcutaneously for two weeks, four-week-old male rats
cAMP increase (pmol/well) [2] [pmol/well],Molecule,"bone increase [1, 3] [mg]",also measured
,"CC[C@H](C)[C@H](NC(=O)[C@H](CCC(=O)O)NC(=O)[C@H](CO)NC(=O)[C@@H](NC(=O)[C@@H](N)CO)C(C)C)C(=O)N[C@@H](CCC(N)=O)C(=O)N[C@@H](CC(C)C)C(=O)N[C@@H](CCSC)C(=O)N[C@@H](Cc1c[nH]cn1)C(=O)N[C@@H](CC(=O)O)C(=O)N[C@@H](Cc1ccccc1)C(=O)NCC(=O)N[C@@H](CCCCN)C(=O)N[C@@H](Cc1c[nH]cn1)C(=O)N[C@@H](CC(C)C)C(=O)N[C@@H](CCCCN)C(=O)N[C@@H](CCCCN)C(=O)N[C@@H](CCSC)C(=O)N[C@@H](CCC(=O)O)C(=O)N[C@@H](CCCNC(=N)N)C(=O)N[C@H](C(=O)N[C@@H](CCC(=O)O)C(=O)N[C@@H](Cc1c[nH]c2ccccc12)C(=O)N[C@@H](CC(C)C)C(=O)N[C@@H](CCCNC(=N)N)C(=O)N[C@@H](CCCCN)C(=O)N[C@@H](CCC(N)=O)C(=O)N[C@@H](CC(C)C)C(=O)N[C@@H](CCC(N)=O)C(=O)NC(C)(C)C(=O)N[C@H](C(=O)N[C@@H](Cc1c[nH]cn1)C(=O)N[C@@H](CC(N)=O)C(=O)N[C@@H](Cc1ccccc1)C(=O)O)C(C)C)C(C)C [(19), [Asp^10, Phe^11, Lys^16,17, Gln^2 7, Aib^30] hPTH(1-34)] (H-SVSEIQLMHDFGKHLKKMERVEWLRKQLQ[Aib]VHNF-OH)",16.9,
,"CC[C@H](C)[C@H](NC(=O)[C@H](CCC(=O)O)NC(=O)[C@H](CO)NC(=O)[C@@H](NC(=O)[C@@H](N)CO)C(C)C)C(=O)N[C@@H](CCC(N)=O)C(=O)N[C@@H](CC(C)C)C(=O)N[C@@H](CCSC)C(=O)N[C@@H](Cc1c[nH]cn1)C(=O)N[C@@H](CCC(=O)O)C(=O)N[C@@H](CC(C)C)C(=O)NCC(=O)N[C@@H](CCCN)C(=O)N[C@@H](Cc1c[nH]cn1)C(=O)N[C@@H](CC(C)C)C(=O)N[C@@H](CC(N)=O)C(=O)N[C@@H](CO)C(=O)N[C@@H](CCSC)C(=O)N[C@@H](CCC(=O)O)C(=O)N[C@@H](CCCNC(=N)N)C(=O)N[C@H](C(=O)N[C@@H](CCC(=O)O)C(=O)N[C@@H](Cc1c[nH]c2ccccc12)C(=O)N[C@@H](CC(C)C)C(=O)N[C@@H](CCCNC(=N)N)C(=O)N[C@@H](CCCCN)C(=O)N[C@@H](CCCCN)C(=O)N[C@@H](CC(C)C)C(=O)N[C@@H](CCC(N)=O)C(=O)N[C@@H](CC(=O)O)C(=O)N[C@H](C(=O)N[C@@H](Cc1c[nH]cn1)C(=O)N[C@@H](CC(N)=O)C(=O)N[C@@H](Cc1ccccc1)C(=O)O)C(C)C)C(C)C [(22), [Glu^10, Orn^13] hPTH(1-34)]",14.8,
,"CC[C@H](C)[C@H](NC(=O)[C@H](CCC(=O)O)NC(=O)[C@H](CO)NC(=O)[C@@H](NC(=O)[C@@H](N)CO)C(C)C)C(=O)N[C@@H](CCC(N)=O)C(=O)N[C@@H](CC(C)C)C(=O)N[C@@H](CCSC)C(=O)N[C@@H](Cc1c[nH]cn1)C(=O)N[C@@H](CCC(=O)O)C(=O)N[C@@H](Cc1ccccc1)C(=O)N[C@H](C)C(=O)N[C@@H](CCCCN)C(=O)N[C@@H](Cc1c[nH]cn1)C(=O)N[C@@H](CC(C)C)C(=O)N[C@@H](CC(N)=O)C(=O)N[C@@H](CO)C(=O)N[C@@H](CCSC)C(=O)N[C@@H](CCC(=O)O)C(=O)N[C@@H](CCCNC(=N)N)C(=O)N[C@H](C(=O)N[C@@H](CCC(=O)O)C(=O)N[C@@H](Cc1c[nH]c2ccccc12)C(=O)N[C@@H](CC(C)C)C(=O)N[C@@H](CCCNC(=N)N)C(=O)N[C@@H](CCCCN)C(=O)N[C@@H](CCCCN)C(=O)N[C@@H](CC(C)C)C(=O)N[C@@H](CCC(N)=O)C(=O)N[C@@H](CC(=O)O)C(=O)N[C@H](C(=O)N[C@@H](Cc1c[nH]cn1)C(=O)N[C@@H](CC(N)=O)C(=O)N[C@@H](Cc1ccccc1)C(=O)O)C(C)C)C(C)C [(10), [Glu^10, Phe^11, D-Ala^12] hPTH(1-34)] (H-SVSEIQLMHEF[dA]KHLNSMERVEWLRKKLQDVHNF-OH)",19.4,
,"CC[C@H](C)[C@H](NC(=O)[C@H](CCC(=O)O)NC(=O)[C@H](CO)NC(=O)[C@@H](NC(=O)[C@@H](N)CO)C(C)C)C(=O)N[C@@H](CCC(N)=O)C(=O)N[C@@H](CC(C)C)C(=O)N[C@@H](CCSC)C(=O)N[C@@H](Cc1c[nH]cn1)C(=O)N[C@@H](CCC(=O)O)C(=O)N[C@@H](Cc1ccccc1)C(=O)NCC(=O)N[C@@H](CCCCN)C(=O)N[C@@H](Cc1c[nH]cn1)C(=O)N[C@@H](CC(C)C)C(=O)N[C@@H](CCCCN)C(=O)N[C@@H](CO)C(=O)N[C@@H](CCSC)C(=O)N[C@@H](CCC(=O)O)C(=O)N[C@@H](CCCNC(=N)N)C(=O)N[C@H](C(=O)N[C@@H](CCC(=O)O)C(=O)N[C@@H](Cc1c[nH]c2ccccc12)C(=O)N[C@@H](CC(C)C)C(=O)N[C@@H](CCCNC(=N)N)C(=O)N[C@@H](CCCCN)C(=O)N[C@@H](CCC(N)=O)C(=O)N[C@@H](CC(C)C)C(=O)N[C@@H](CCC(N)=O)C(=O)N[C@@H](CC(=O)O)C(=O)N[C@H](C(=O)N[C@@H](Cc1c[nH]cn1)C(=O)N[C@@H](CC(N)=O)C(=O)N[C@@H](Cc1ccccc1)C(=O)O)C(C)C)C(C)C [(17), [Glu^10, Phe^11, Lys^16, Gln^27] hPTH(1-34)] (H-SVSEIQLMHEFGKHLKSMERVEWLRKQLQDVHNF-OH)",12.4,
,"CC[C@H](C)[C@H](NC(=O)[C@H](CCC(=O)O)NC(=O)[C@H](CO)NC(=O)[C@@H](NC(=O)[C@@H](N)CO)C(C)C)C(=O)N[C@@H](CCC(N)=O)C(=O)N[C@@H](CC(C)C)C(=O)N[C@@H](CCSC)C(=O)N[C@@H](Cc1c[nH]cn1)C(=O)N[C@@H](CC(=O)O)C(=O)N[C@@H](CCCCN)C(=O)NCC(=O)N[C@@H](CCCCN)C(=O)N[C@@H](Cc1c[nH]cn1)C(=O)N[C@@H](CC(C)C)C(=O)N[C@@H](CC(N)=O)C(=O)N[C@@H](CO)C(=O)N[C@@H](CCSC)C(=O)N[C@@H](CCC(=O)O)C(=O)N[C@@H](CCCNC(=N)N)C(=O)N[C@H](C(=O)N[C@@H](CCC(=O)O)C(=O)N[C@@H](Cc1c[nH]c2ccccc12)C(=O)N[C@@H](CC(C)C)C(=O)N[C@@H](CCCNC(=N)N)C(=O)N[C@@H](CCCCN)C(=O)N[C@@H](CCCCN)C(=O)N[C@@H](CC(C)C)C(=O)N[C@@H](CCC(N)=O)C(=O)N[C@@H](CC(=O)O)C(=O)N[C@H](C(=O)N[C@@H](Cc1c[nH]cn1)C(=O)N[C@@H](CC(N)=O)C(=O)N[C@@H](Cc1ccccc1)C(=O)O)C(C)C)C(C)C [(1), [Asp^10, Lys^11] hPTH(1-34)] (H-SVSEIQLMHDKGKHLNSMERVEWLRKKLQDVHNF-OH)",,"bone increase ([1]; 4.9 nmol/kg a day subcutaneously, continuously administered for 4 weeks): 66.6 mg"
,"CC[C@H](C)[C@H](NC(=O)[C@H](CCC(=O)O)NC(=O)[C@H](CO)NC(=O)[C@@H](NC(=O)[C@@H](N)CO)C(C)C)C(=O)N[C@@H](CCC(N)=O)C(=O)N[C@@H](CC(C)C)C(=O)N[C@@H](CCSC)C(=O)N[C@@H](Cc1c[nH]cn1)C(=O)N[C@@H](CCC(=O)O)C(=O)N[C@@H](CC(C)C)C(=O)NCC(=O)N[C@@H](CCCCN)C(=O)N[C@@H](Cc1c[nH]cn1)C(=O)N[C@@H](CC(C)C)C(=O)N[C@@H](CO)C(=O)N[C@@H](CO)C(=O)N[C@@H](CCSC)C(=O)N[C@@H](CCC(=O)O)C(=O)N[C@@H](CCCNC(=N)N)C(=O)N[C@H](C(=O)N[C@@H](CCC(=O)O)C(=O)N[C@@H](Cc1c[nH]c2ccccc12)C(=O)N[C@@H](CC(C)C)C(=O)N[C@@H](CCCNC(=N)N)C(=O)N[C@@H](CCCCN)C(=O)N[C@@H](CCCCN)C(=O)N[C@@H](CC(C)C)C(=O)N[C@@H](CCC(N)=O)C(=O)N[C@@H](CC(=O)O)C(=O)N[C@H](C(=O)N[C@@H](Cc1c[nH]cn1)C(=O)N[C@@H](CC(N)=O)C(=O)N[C@@H](Cc1ccccc1)C(=O)O)C(C)C)C(C)C [(15), [Glu^10, Ser^16] hPTH(1-34)] (H-SVSEIQLMHELGKHLSSMERVEWLRKKLQDVHNF-OH)",15.1,
2.65,"SVSEIQLMHD[2Nal]GKHLNSMERVEWLRKKLQDVHNF [[Asp^10, Ala(2-Naph)^11 ] hPTH(1-34)]",,
0.6,SVSEIQLMHDLGKHLNSMERVEWLRKKLQDVHNF [[Asp^10 ] hPTH(1-34)],,
1.81,SVSEIQLMHELGKHLNSMERVEWLRKKLQDVHNF [[Glu^10 ] hPTH(1-34)],,
2.58,"SVSEIQLMHDFGKHLNSMERVEWLRKKLQDVHNF [[Asp^10, Phe^11 ] hPTH(1-34)]",,
